The record followed here is US20170008928A1, “NOVEL PEPTIDES AND PEPTIDE DERIVATIVES AND USES THEREOF” (Novo Nordisk A/S, priority 2015, published 2017).

Test [1] deals with T1, human cholecystokinin-1 receptor (CCK-1R) (Homo sapiens, UniProt P32238).
T1 construct: host or cells: 1321-N1 cells
T1 sequence (P32238 1-428): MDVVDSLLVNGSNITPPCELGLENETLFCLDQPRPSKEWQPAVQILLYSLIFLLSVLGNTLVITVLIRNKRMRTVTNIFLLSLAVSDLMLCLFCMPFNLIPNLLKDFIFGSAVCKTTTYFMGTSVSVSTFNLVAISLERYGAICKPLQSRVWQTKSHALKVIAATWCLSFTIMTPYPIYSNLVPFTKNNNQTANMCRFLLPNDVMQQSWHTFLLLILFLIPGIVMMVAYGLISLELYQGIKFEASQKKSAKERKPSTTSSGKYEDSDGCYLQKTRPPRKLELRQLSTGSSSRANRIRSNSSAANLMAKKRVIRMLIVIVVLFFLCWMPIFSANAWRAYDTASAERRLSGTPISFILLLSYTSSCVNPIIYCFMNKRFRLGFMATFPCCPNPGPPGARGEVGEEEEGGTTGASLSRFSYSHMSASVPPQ
Put plainly: In vitro potency on CCK-1R, whole cell functional assay (IP1 accumulation, IP-One HTRF). It is filed as cell-based. For orientation: In TR-FRET formats the signal depends on donor and acceptor labels being close together.

For test [2], the target named is T2, human cholecystokinin-2 receptor (CCK-2R) (Homo sapiens, UniProt P32239).
T2 construct: host or cells: 1321-N1 cells (plasma membranes prepared by Evotec AG Hamburg)
T2 sequence (P32239 1-447): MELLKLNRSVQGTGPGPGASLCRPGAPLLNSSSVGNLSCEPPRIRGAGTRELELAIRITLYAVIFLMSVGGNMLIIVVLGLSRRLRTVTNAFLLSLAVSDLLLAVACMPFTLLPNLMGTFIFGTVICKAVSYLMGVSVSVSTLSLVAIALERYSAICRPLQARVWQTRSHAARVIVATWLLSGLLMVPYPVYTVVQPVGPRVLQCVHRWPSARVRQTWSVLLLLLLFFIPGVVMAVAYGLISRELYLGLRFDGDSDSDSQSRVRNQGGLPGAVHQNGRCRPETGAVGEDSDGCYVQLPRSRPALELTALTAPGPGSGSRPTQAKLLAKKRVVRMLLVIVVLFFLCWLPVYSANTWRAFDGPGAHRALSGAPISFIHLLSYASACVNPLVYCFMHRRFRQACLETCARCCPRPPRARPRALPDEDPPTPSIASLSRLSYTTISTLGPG
Put plainly: In vitro potency on CCK-2R, whole cell functional assay (IP1 accumulation, IP-One HTRF). Type of test: cell-based.

For test [3], the target named is T2, human cholecystokinin-2 receptor (CCK-2R). Put plainly: In vitro receptor binding to CCK-2R, SPA displacement of [125I]-CCK-8s from plasma membranes. (In general: Loss of bound radioactivity is the signal in a displacement assay; it reports binding, not function.)
The mark [4] stands for this setting: 1321-N1 cells stably expressing CCK-1R, IP1 accumulation, average of min. three replicates, read-out: EC50 (CCK-1R).
[5] abbreviates: 1321-N1 cells stably expressing CCK-2R, IP1 accumulation, highest dose tested 1×10^6 pM, read-out: EC50 (CCK-2R).
Setting [6] is: displacement of [125I]-CCK-8s, plasma membranes of 1321-N1 cells expressing CCK-2R, highest dose tested 1×10^7 pM, read-out: IC50 (CCK-2R).

SMILES strings stand for the structures. pEC50, pIC50: −log10 of the molar value. Where two headings read alike, the source gives them in different places. Starred links: 1 amine or outer side, 2 acyl side, 3 side chain; linkers in the order of their positions; H or OH if unused. Non-standard residues stand in square brackets, D forms with d. Residues, ends and D or L forms follow the SMILES beside them. *: point of attachment. Phe(4-CH2SO3H) = N[C@@H](Cc1ccc(CS(=O)(=O)O)cc1)C(=O)O; sY = N[C@@H](Cc1ccc(OS(=O)(=O)O)cc1)C(=O)O; C18 diacid = O=C(O)CCCCCCCCCCCCCCCCC(=O)*; γGlu = O=C(O)[C@H](CCC(=O)[*:2])N[*:1]; Met(O2) = CS(=O)(=O)CC[C@H](N)C(=O)O; NMeF = CN[C@@H](Cc1ccccc1)C(=O)O; dNMeD = CN[C@H](CC(=O)O)C(=O)O; Nle = CCCC[C@H](N)C(=O)O; AEEA = NCCOCCOCC(=O)O

`CC(C)C[C@H](NC(=O)[C@H](Cc1ccc(OS(=O)(=O)O)cc1)NC(=O)[C@H](CC(=O)O)NC(=O)COCCOCCNC(=O)COCCOCCNC(=O)CC[C@H](NC(=O)CCCCCCCCCCCCCCCCC(=O)O)C(=O)O)C(=O)NCC(=O)N[C@@H](Cc1c[nH]c2ccccc12)C(=O)N[C@@H](CCS(C)(=O)=O)C(=O)N(C)[C@H](CC(=O)O)C(=O)N(C)[C@@H](Cc1ccccc1)C(N)=O` [Example 12, 2-[2-[2-[[2-[2-[2-[[(4S)-4-Carboxy-4-(17-carboxyheptadecanoylamino)butanoyl]amino]ethoxy]ethoxy]acetyl]amino]ethoxy]ethoxy]acetyl-Asp-sTyr-Leu-Gly-Trp-Met(O2)-DMeAsp-MePhe-amide] ({C18 diacid-γGlu-AEEA-AEEA}-D[sY]LGW[Met(O2)][dNMeD][NMeF]-NH2): the pEC50 (in general, the negative decadic logarithm of the EC50, by convention in mol/L) in test [1] (setting [4]) is 9.85; in test [2] (setting [5]) it was less than 6.00. Also, the pIC50 (in general, −log10 of the IC50, conventionally taken in molar units) in test [3] was less than 5.00.
Take `CCCC[C@H](NC(=O)[C@H](Cc1c[nH]c2ccccc12)NC(=O)CNC(=O)[C@H](CCCNC(=N)N)NC(=O)[C@H](Cc1ccc(OS(=O)(=O)O)cc1)NC(=O)[C@H](CC(=O)O)NC(=O)COCCOCCNC(=O)COCCOCCNC(=O)CC[C@H](NC(=O)CCCCCCCCCCCCCCCCC(=O)O)C(=O)O)C(=O)N(C)[C@H](CC(=O)O)C(=O)N(C)[C@@H](Cc1ccccc1)C(N)=O` [Example 17, 2-[2-[2-[[2-[2-[2-[[(4S)-4-Carboxy-4-(17-carboxyheptadecanoylamino)butanoyl]amino]ethoxy]ethoxy]acetyl]amino]ethoxy]ethoxy]acetyl-Asp-sTyr-Arg-Gly-Trp-Nle-DMeAsp-MePhe-amide] ({C18 diacid-γGlu-AEEA-AEEA}-D[sY]RGW[Nle][dNMeD][NMeF]-NH2): the pEC50 is 9.68 in test [1] (setting [4]) and 6.57 in test [2] (setting [5]). Also, the pIC50 in test [3] (setting [6]) was 6.06.
The matching figures for `CCCC[C@H](NC(=O)[C@H](Cc1ccc(CS(=O)(=O)O)cc1)NC(=O)[C@@H](N)CC(=O)O)C(=O)NCC(=O)N[C@@H](Cc1c[nH]c2ccccc12)C(=O)N[C@@H](CCCC)C(=O)N(C)[C@H](CC(=O)O)C(=O)N(C)[C@@H](Cc1ccccc1)C(N)=O` [Example 55, Asp-Phe(4-sulfomethyl)-Nle-Gly-Trp-Nle-DMeAsp-MePhe-amide] (H-D[Phe(4-CH2SO3H)][Nle]GW[Nle][dNMeD][NMeF]-NH2): 9.60, less than 6.00 and less than 5.00.
As to `CCCC[C@H](NC(=O)[C@H](Cc1c[nH]c2ccccc12)NC(=O)CNC(=O)[C@H](CC(C)C)NC(=O)[C@H](Cc1ccc(OS(=O)(=O)O)cc1)NC(=O)[C@@H](N)CC(=O)O)C(=O)N(C)[C@H](CC(=O)O)C(=O)N[C@@H](Cc1ccccc1)C(N)=O` [Example 58, Asp-sTyr-Leu-Gly-Trp-Nle-DMeAsp-Phe-amide], the pEC50 in test [1] (setting [4]) is 9.68; in test [2] (setting [5]), less than 6.00. The pIC50 in test [3] (setting [6]) is less than 5.00.
On to `CC(C)C[C@H](NC(=O)[C@H](Cc1ccc(OS(=O)(=O)O)cc1)NC(=O)[C@@H](N)CC(=O)O)C(=O)NCC(=O)N[C@@H](Cc1c[nH]c2ccccc12)C(=O)N[C@@H](CC(C)C)C(=O)N(C)[C@H](CC(=O)O)C(=O)N(C)[C@@H](Cc1ccccc1)C(N)=O` [Example 64, Asp-sTyr-Leu-Gly-Trp-Leu-DMeAsp-MePhe-amide], for which the results for the pEC50 in test [1] and in test [2] were 9.60 and less than 6.00, respectively. Moreover, the pIC50 in test [3] is less than 5.00.
Consider `CCCC[C@H](NC(=O)[C@H](Cc1c[nH]c2ccccc12)NC(=O)CNC(=O)[C@@H]1CCCN1C(=O)[C@H](Cc1ccc(OS(=O)(=O)O)cc1)NC(=O)[C@@H](N)CC(=O)O)C(=O)N(C)[C@H](CC(=O)O)C(=O)N(C)[C@@H](Cc1ccccc1)C(N)=O` [Example 69, Asp-sTyr-Pro-Gly-Trp-Nle-DMeAsp-MePhe-amide] (H-D[sY]PGW[Nle][dNMeD][NMeF]-NH2), for which the pEC50 is 9.72 in test [1] (setting [4]) and less than 6.00 in test [2] (setting [5]). In addition, in test [3] (setting [6]), the pIC50 is less than 5.00.
The matching figures for `CCCC[C@H](NC(=O)[C@H](Cc1c[nH]c2ccccc12)NC(=O)CNC(=O)[C@H](CC(C)C)NC(=O)[C@H](Cc1ccc(OS(=O)(=O)O)cc1)NC(=O)[C@@H](N)CCC(=O)O)C(=O)N(C)[C@H](CC(=O)O)C(=O)N(C)[C@@H](Cc1ccccc1)C(N)=O` [Example 77, Glu-sTyr-Leu-Gly-Trp-Nle-DMeAsp-MePhe-amide] (H-E[sY]LGW[Nle][dNMeD][NMeF]-NH2): 9.68, 6.04 and less than 5.00.
On to `CCCC[C@H](NC(=O)[C@H](Cc1c[nH]c2ccccc12)NC(=O)CNC(=O)[C@H](CO)NC(=O)[C@H](Cc1ccc(OS(=O)(=O)O)cc1)NC(=O)[C@@H](N)CC(=O)O)C(=O)N(C)[C@H](CC(=O)O)C(=O)N(C)[C@@H](Cc1ccccc1)C(N)=O` [Example 79, Asp-sTyr-Ser-Gly-Trp-Nle-DMeAsp-MePhe-amide] (H-D[sY]SGW[Nle][dNMeD][NMeF]-NH2), for which the results for the pEC50 in test [1] (setting [4]) and in test [2] (setting [5]) were 9.72 and less than 6.00, respectively.
For `CCCC[C@H](NC(=O)[C@H](Cc1c[nH]c2ccccc12)NC(=O)CNC(=O)[C@H](C)NC(=O)[C@H](Cc1ccc(OS(=O)(=O)O)cc1)NC(=O)[C@@H](N)CC(=O)O)C(=O)N(C)[C@H](CC(=O)O)C(=O)N(C)[C@@H](Cc1ccccc1)C(N)=O` [Example 80, Asp-sTyr-Ala-Gly-Trp-Nle-DMeAsp-MePhe-amide] (H-D[sY]AGW[Nle][dNMeD][NMeF]-NH2), the results for the pEC50 in test [1] (setting [4]) and in test [2] (setting [5]) were 9.80 and less than 6.00, respectively. The pIC50 in test [3] (setting [6]) is less than 5.00.
